# Source: article PMC9127750, “Structure-based design of CDC42 effector interaction inhibitors for the treatment of cancer” (Cell reports, 2022)
# Tested on: WM3248 melanoma cells, 486 antibodies
# Assay: Reverse phase protein arrays (RPPA);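 as to RPPA ACC1.R.C: ratio of treated to vehicle (0 µM) normalized linear protein signal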;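 as to RPPA AMPK.a2 pS345.R.V: ratio of treated to vehicle (0 µM) normalized linear protein signal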;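 as to RPPA AMPKa pT172.R.C: ratio of treated to vehicle (0 µM) normalized linear protein signal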;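 as to RPPA ASNS.R.V: ratio of treated to vehicle (0 µM) normalized linear protein signal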;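 as to RPPA Akt1.R.V: ratio of treated to vehicle (0 µM) normalized linear protein signal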;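 as to RPPA Atg5.R.C: ratio of treated to vehicle (0 µM) normalized linear protein signal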;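 as to RPPA Bim.R.V: ratio of treated to vehicle (0 µM) normalized linear protein signal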
# Format: cell-based, Human
# Settings: 20 uM
# Excerpt: Pellets were snap frozen in liquid nitrogen and shipped to MD Anderson Cancer Center core RPPA facility for RPPA analysis (Table S5). Three biological replicates for each sample were generated.
# Nomenclatures on the RPPA heatmaps: name_of_antibody.species_of_antibody.status_of_antibody. V - antibody validated; C - validation of antibody in progress; Q - antibody nonspecific; E – under evaluation; antibodies raised in M - mouse, G - goat, R - rabbit, or T - rat.
structure (smiles),measurement,setting,value
"CN(C)c1cccc(Nc2cc(-c3ccccc3)nc(C3CCNCC3)n2)c1 [ARN22089, N1,N1-dimethyl-N3-(6-phenyl-2-(piperidin-4-yl)pyrimidin-4-yl)benzene-1,3-diamine]",RPPA p38.a.M.V Average,,0.905
same,RPPA p44.42.MAPK.R.V Average,,1.030
same,RPPA p53.R.C Average,,1.157
same,RPPA p70.S6K1.R.V Average,,1.027
same,RPPA p70.S6K_pT389.R.V Average,,0.996
same,RPPA p90RSK_pT573.R.C Average,,1.014
same,RPPA A.Raf.R.V,20W1,1.011
same,RPPA ACC1.R.C,20W1,0.890
same,RPPA ACLY_pS455.R.V,20W1,1.224
same,RPPA ACSL1.R.V,20W1,0.955
same,RPPA ACVRL1.R.C,20W1,0.972
same,RPPA ADAR1.M.V,20W1,1.307
same,RPPA ALKBH5.R.V,20W1,0.885
same,RPPA AMPK.a2_pS345.R.V,20W1,1.081
same,RPPA AMPKa.R.C,20W1,1.032
same,RPPA AMPKa_pT172.R.C,20W1,3.755
same,RPPA AR.R.V,20W1,0.874
same,RPPA ARID1A.R.C,20W1,1.514
same,RPPA ASNS.R.V,20W1,0.742
same,RPPA ATM.R.V,20W1,1.024
same,RPPA ATM_pS1981.R.V,20W1,1.111
same,RPPA ATP5A.M.C,20W1,1.018
same,RPPA ATP5H.R.V,20W1,1.117
same,RPPA ATR.R.V,20W1,1.005
same,RPPA ATRX.R.C,20W1,1.357
same,RPPA ATR_pS428.R.C,20W1,1.054
same,RPPA AceCS1.R.V,20W1,0.907
same,RPPA Akt1.R.V,20W1,0.811
same,RPPA Akt1_pS473.R.V,20W1,1.162
same,RPPA Akt2.R.V,20W1,0.873
same,RPPA Akt.R.V,20W1,0.913
same,RPPA Akt_pS473.R.V,20W1,0.795
same,RPPA Akt_pT308.R.V,20W1,0.845
same,RPPA Ambra1_pS52.R.C,20W1,1.101
same,RPPA Annexin.I.M.V,20W1,0.972
same,RPPA Atg3.R.V,20W1,0.914
same,RPPA Atg4B.R.C,20W1,0.881
same,RPPA Atg5.R.C,20W1,0.779
same,RPPA Atg7.R.V,20W1,0.813
same,RPPA Aurora.A.R.C,20W1,0.656
same,RPPA Aurora.ABC_pT288_pT232_pT198.R.C,20W1,0.959
same,RPPA Aurora.B.R.V,20W1,1.341
same,RPPA Axl.R.V,20W1,0.908
same,RPPA B7.H3.R.C,20W1,0.771
same,RPPA B7.H4.R.C,20W1,1.034
same,RPPA B.Raf.R.C,20W1,0.907
same,RPPA B.Raf_pS445.R.V,20W1,0.934
same,RPPA BAP1.M.V,20W1,0.877
same,RPPA BCL2A1.R.V,20W1,0.987
same,RPPA BMK1.Erk5_pT218_Y220.R.V,20W1,0.909
same,RPPA BRCA1.M.C,20W1,1.231
same,RPPA BRD4.R.V,20W1,1.228
same,RPPA Bad_pS112.R.V,20W1,1.119
same,RPPA Bak.R.C,20W1,1.000
same,RPPA Bax.R.V,20W1,0.927
same,RPPA Bcl2.R.C,20W1,1.064
same,RPPA Bcl.xL.R.V,20W1,1.008
same,RPPA Beclin.R.C,20W1,0.873
same,RPPA BiP.GRP78.M.C,20W1,0.914
same,RPPA Bid.R.C,20W1,0.954
same,RPPA Bim.R.V,20W1,1.054
same,RPPA X4E.BP1.R.V,20W1,1.323
same,RPPA X4E.BP1_pS65.R.V,20W1,0.718
same,RPPA X4E.BP1_pT37_T46.R.V,20W1,0.651
same,RPPA X14.3.3.zeta.R.V,20W1,0.801
same,RPPA X14.3.3βR.V,20W1,1.140
same,RPPA X14.3.3εM.C,20W1,0.864
same,RPPA b.Actin.R.C,20W1,1.078
same,RPPA b.Catenin.R.V,20W1,0.844
same,RPPA b.Catenin_pT41_S45.R.V,20W1,1.120
same,RPPA c.Abl.R.V,20W1,1.161
same,RPPA c.IAP2.R.C,20W1,1.080
same,RPPA A.Raf.R.V,20W3,0.992
same,RPPA A.Raf_pS299.R.C,20W3,0.987
same,RPPA ACC1.R.C,20W3,0.779
same,RPPA ACC_pS79.R.V,20W3,0.983
same,RPPA ACLY_pS455.R.V,20W3,0.970
same,RPPA ACSL1.R.V,20W3,0.853
same,RPPA ACVRL1.R.C,20W3,0.984
same,RPPA ALKBH5.R.V,20W3,0.991
same,RPPA AMPK.a2_pS345.R.V,20W3,1.134
same,RPPA AMPKa.R.C,20W3,1.122
same,RPPA AMPKa_pT172.R.C,20W3,2.117
same,RPPA AR.R.V,20W3,1.261
same,RPPA ARID1A.R.C,20W3,1.115
same,RPPA ASNS.R.V,20W3,1.296
same,RPPA ATM.R.V,20W3,0.991
same,RPPA ATM_pS1981.R.V,20W3,0.989
same,RPPA ATP5A.M.C,20W3,0.955
same,RPPA ATP5H.R.V,20W3,0.967
same,RPPA ATR.R.V,20W3,0.989
same,RPPA ATR_pS428.R.C,20W3,1.254
same,RPPA AceCS1.R.V,20W3,0.994
same,RPPA Akt1.R.V,20W3,1.129
same,RPPA Akt1_pS473.R.V,20W3,1.135
same,RPPA Akt2.R.V,20W3,1.035
same,RPPA Akt2_pS474.R.C,20W3,1.166
same,RPPA Akt.R.V,20W3,0.976
same,RPPA Akt_pS473.R.V,20W3,1.265
same,RPPA Ambra1_pS52.R.C,20W3,0.996
same,RPPA Annexin.I.M.V,20W3,0.990
same,RPPA Annexin.VII.M.V,20W3,0.885
same,RPPA Atg3.R.V,20W3,1.076
same,RPPA Atg4B.R.C,20W3,1.076
same,RPPA Atg5.R.C,20W3,0.960
same,RPPA Aurora.A.R.C,20W3,0.983
same,RPPA Aurora.ABC_pT288_pT232_pT198.R.C,20W3,1.060
same,RPPA Axl.R.V,20W3,1.478
same,RPPA B7.H3.R.C,20W3,1.058
same,RPPA B7.H4.R.C,20W3,1.107
same,RPPA B.Raf_pS445.R.V,20W3,1.167
same,RPPA BAP1.M.V,20W3,0.964
same,RPPA BMK1.Erk5_pT218_Y220.R.V,20W3,0.926
same,RPPA BRCA1.M.C,20W3,0.977
same,RPPA BRD4.R.V,20W3,1.002
same,RPPA Bad_pS112.R.V,20W3,1.163
same,RPPA Bax.R.V,20W3,1.054
same,RPPA Bcl2.R.C,20W3,0.975
same,RPPA Bcl.xL.R.V,20W3,1.190
same,RPPA Beclin.R.C,20W3,0.948
same,RPPA BiP.GRP78.M.C,20W3,1.003
same,RPPA Bid.R.C,20W3,0.943
same,RPPA Bim.R.V,20W3,0.917
same,RPPA X4E.BP1.R.V,20W3,1.550
same,RPPA X4E.BP1_pS65.R.V,20W3,1.024
same,RPPA X4E.BP1_pT37_T46.R.V,20W3,1.034
same,RPPA X14.3.3βR.V,20W3,0.902
same,RPPA X14.3.3εM.C,20W3,0.973
same,RPPA b.Actin.R.C,20W3,0.977
same,RPPA b.Catenin.R.V,20W3,1.021
same,RPPA b.Catenin_pT41_S45.R.V,20W3,1.082
same,RPPA c.Abl.R.V,20W3,1.234
same,RPPA c.Abl_pY412.R.C,20W3,1.114
same,C.Raf.R.C RPPA level,Average,1.061
same,CA9.R.C RPPA level,Average,0.925
same,CD2.M.C RPPA level,Average,0.936
same,CD4.R.V RPPA level,Average,1.006
same,CD5.M.C RPPA level,Average,0.966
same,CD20.R.C RPPA level,Average,1.099
same,CD31.M.V RPPA level,Average,0.988
same,CD38.R.C RPPA level,Average,1.131
same,CD44.R.C RPPA level,Average,0.982
same,CD45.M.V RPPA level,Average,0.957
same,CD49b.M.V RPPA level,Average,0.989
same,CD68.M.C RPPA level,Average,0.999
same,CD74.M.V RPPA level,Average,0.998
same,CD134.R.V RPPA level,Average,0.994
same,CD171.M.V RPPA level,Average,0.762
same,CDK1_pT14.R.C RPPA level,Average,1.056
same,CDK9.R.V RPPA level,Average,0.964
same,CDKN2A.R.C RPPA level,Average,1.024
same,CDT1.R.V RPPA level,Average,0.971
same,CENP.A.R.V RPPA level,Average,1.548
same,CHD1L.R.V RPPA level,Average,0.954
same,CIITA.R.C RPPA level,Average,1.002
same,COG3.R.V RPPA level,Average,1.098
same,CRABP1.R.C RPPA level,Average,1.025
same,CRABP2.R.V RPPA level,Average,0.977
same,CREB_pS133.R.C RPPA level,Average,1.270
same,CSK.R.C RPPA level,Average,0.987
same,Calnexin.R.V RPPA level,Average,0.956
same,Caspase.7.cleaved..R.C RPPA level,Average,0.982
same,Caspase.8.M.Q RPPA level,Average,0.929
